Data from patent US9598387B2 (Southern Research Institute, priority 2012, dated 2017).

Tests used:
Long Evans rats = experiment: Spontaneous locomotor activity; assay type: in vivo, rat; settings: 10 minutes prior to placement in chambers
Description: These studies were performed using Long Evans rats using standard protocols. Locomotor activity chambers measuring 43×43×30 cm (l×w×h) were used for the locomotor activity experiments. Each chamber was equipped with eight photo-emitters positioned along the length of the chamber 6 cm above the floor, each paired directly opposite a photocell. Locomotor activity counts were registered when adjacent beams were broken consecutively. Before receiving any drug, the animals (n=96) were placed in locomotor activity chambers for habituation, for 2 hours per day for 3 consecutive days. Based on the locomotor activity score obtained during the third habituation session, animals were assigned into one of […] treatment groups. […] For the 113 alone experiments, each of the four groups received one of 4 doses of 113 (0, 3.75, 7.5 or 15 mg/kg) 10 minutes prior to placement in the activity chambers. For the 113 cocaine interaction experiments, each of 4 groups were injected with one of the 4 doses of the compound (0, 3.75, 7.5 or 15 mg/kg) 10 minutes before receiving 10 mg/kg of cocaine as the second injection. […] The locomotor counts in the 113 alone and 113/cocaine experiments were analyzed using two separate mixed-design ANOVAs with 113 dose (between-groups) and 5-min bins (repeated measures) as factors. […]

D3R [1] = target: T1, D3R (Homo sapiens (Human), UniProt P35462); experiment: D3 Mitogenesis Functional Assay (3H-thymidine uptake, CHOp-D3 cells); assay type: cell-based
Procedure, shortened: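 CHO cells expressing human D3, serum-starved 24 h, then given compound (agonist mode) or antagonist plus 30 nM quinpirole final for 16 h at 37 °C. A 2 h [3H]thymidine pulse was used for uptake.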

D3R [2] = target: T1, D3R; experiment: [35S]GTPγS Binding Assay, CHO D3 membranes; assay type: biochemical; settings: antagonist vs dopamine; Ke = functional Ki; read-out: CHO-hD3 Ke
Description: Chinese hamster ovary (CHO) cells expressing human D2L and D3 receptors served as the source for membrane fractions which were washed and resuspended with assay buffer containing Mg^2+, Na^+, EGTA, and bovine serum albumin. […] After preincubation with test compounds, cell membranes and GDP for 15 minutes at 30° C. in a shaking water bath, [^35S]GTPγS was added and incubation proceeded for an additional 45 minutes. Cell membranes were harvested on Brandel GF/B filtermats with a 24-pin Brandel harvester (Biomedical Research & Development Laboratories, Inc., Gaithersburg, Md.). […] Antagonist activity was assessed by testing a fixed concentration of the test compound and varying concentration of the agonist, dopamine (0.001-100 μM for CHO D2 and 0.1 nM-10 uM for CHO D3).

[3] = target: human D3 dopamine receptor (Homo sapiens (Human), UniProt P35462); experiment: Radioligand binding (125I-IABN competition), D3; settings: 125I-IABN competition, HEK cell membranes expressing human D3
Description: The affinities of the target compounds were determined using radioligand binding experiments. […] Competition curves were modeled for a single site. Data from competition dose-response curves were analyzed using Tablecurve program (Jandel). IC50 values were converted to equilibrium dissociation constants (Ki values) using the Cheng and Prusoff correction.

[4] = target: human D2 dopamine receptors (Homo sapiens (Human), UniProt P14416); experiment: Whole Cell Adenylyl Cyclase Assay, D2; assay type: cell-based; settings: inhibition of forskolin (100 μM) stimulated cAMP, normalized to quinpirole; compound conc ≥10× Ki (per compound); mean ± S.E.M.
Sequence of human D2 dopamine receptors (P14416 whole entry): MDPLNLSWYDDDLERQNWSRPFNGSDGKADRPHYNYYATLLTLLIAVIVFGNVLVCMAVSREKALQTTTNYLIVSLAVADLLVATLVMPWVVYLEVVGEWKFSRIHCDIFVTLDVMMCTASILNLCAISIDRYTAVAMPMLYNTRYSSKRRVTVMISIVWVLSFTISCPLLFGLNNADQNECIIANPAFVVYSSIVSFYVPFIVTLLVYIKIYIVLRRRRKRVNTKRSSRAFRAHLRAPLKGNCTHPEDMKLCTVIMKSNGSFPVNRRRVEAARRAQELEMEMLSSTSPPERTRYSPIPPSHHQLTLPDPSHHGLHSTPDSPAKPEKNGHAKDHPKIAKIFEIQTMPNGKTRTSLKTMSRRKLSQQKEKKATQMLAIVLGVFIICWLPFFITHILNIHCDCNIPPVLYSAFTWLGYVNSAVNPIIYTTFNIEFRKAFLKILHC

T1 sequence (P35462 whole entry): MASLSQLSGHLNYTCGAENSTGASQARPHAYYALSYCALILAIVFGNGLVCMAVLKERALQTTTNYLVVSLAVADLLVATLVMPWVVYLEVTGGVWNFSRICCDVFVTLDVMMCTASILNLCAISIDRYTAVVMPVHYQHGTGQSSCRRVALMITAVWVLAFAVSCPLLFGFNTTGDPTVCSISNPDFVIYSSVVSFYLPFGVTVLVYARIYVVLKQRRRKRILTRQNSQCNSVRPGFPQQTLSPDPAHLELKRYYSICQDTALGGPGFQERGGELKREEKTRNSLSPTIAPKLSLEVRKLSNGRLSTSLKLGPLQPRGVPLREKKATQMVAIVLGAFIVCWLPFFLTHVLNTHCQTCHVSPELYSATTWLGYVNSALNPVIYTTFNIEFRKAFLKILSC
Sequence of human D3 dopamine receptor (P35462 whole entry): as above

For CC(C)(C)c1nc(N2CCN(CCCCNC(=O)c3cn4ccccc4n3)CC2)cc(C(F)(F)F)n1 [Compound 113, N-(4-(4-(2-(tert-Butyl)-6-(trifluoromethyl)pyrimidin-4-yl)piperazin-1-yl)butyl)imidazo[1,2-a]pyridine-2-carboxamide], the spontaneous locomotor activity (Long Evans rats; 3.75 mg dose) was “had no effect on spontaneous locomotor activity”, the spontaneous locomotor activity (Long Evans rats; 7.5 and 15 mg doses) was “appeared to reduce locomotor activity in the first 5 minutes of testing but did not affect activity after that” and the Emax at 10 µM (D3R [1]; at 10 μM, % maximum stimulation vs quinpirole (100%), read-out: D3 Agonist Emax) was 0%. For the same compound, the IC50 (D3R [1]; inhibition of quinpirole (30 nM final) stimulation of mitogenesis, read-out: D3 Antagonist IC50) was 157 ± 34 nM, the Ki (D3R [2]) was 1.32 ± 0.35 nM and the Ki [3] was 4.2 ± 0.6 nM. For the same compound, the “D2 Cyclase % Inhibition Normalized” value [4] was −1.9 ± 13.3%.
